Values of other authors, collected in patent US20160235072A1, “ANTIMICROBIAL POLYMER CONCENTRATES AND COMPOUNDS” (POLYONE CORPORATION, priority 2013, published 2016).

Tested on: pathogens from the Streptococcus and Staphylococcus genera

Substance: Zinc pyrithione
- effectiveness against pathogens: effective against many pathogens
